Measurements: US20230053307A1, “METHOD FOR PREVENTING OR TREATING SKIN DISORDERS AND CONDITIONS” (BUDDHIST TZU CHI MEDICAL FOUNDATION, priority 2021, published 2023)

Assays:
[1] = test system: primary human keratinocytes; test: Western blotting of CKI-treated primary human keratinocytes; format: cell-based; conditions: 72 hours
Protocol: FIGS. 4A to 4G show the effect of CKI treatment on human primary keratinocytes and melanocytes. […] In FIG. 4B, the primary human keratinocytes were treated with indicated concentrations of CKI when the cell confluence was 90%. […] Statistical results from a total of 3 independent experiments were determined with unpaired t-test analysis and shown as mean±SD. “NS” indicates no significant difference and asterisks *** indicates a significant difference with P<0.001. In FIGS. 4D and 4E, the primary melanocytes were cultured in conditional medium that have cultured keratinocytes for 3 days and treated with or without CKI.
FIGS. 7A to 7C show the effects of additional casein kinase 1 inhibitors including A51, CKI7, D4476 and IC261 on the Kit pathway and melanogenesis-related protein expression levels of human keratinocytes.
(§1) Western blot For experiments involving tissues, the tissues were homogenized and lysed in 1x tissue protein extraction reagent (Thermo Fisher) containing protease inhibitor (Millipore) and kept on ice; for experiments involving cells, cell pellet was collected and lysed in 1x radioimmunoprecipitation assay (RIPA) lysis buffer containing protease inhibitor (Millipore) and kept on ice. The total protein concentration was determined using Protein Assay Dye Reagent Concentrate (Bio-Rad) following manufacturer's instruction with a microplate reader. Sample was diluted in SDS-PAGE Sample Buffer (Bio-Rad) and heated at 95° C. for 5 minutes. The protein sample was then resolved on SDS-PAGE gels (TGX FastCast acrylamide solutions, Bio-Rad) and transferred onto poly(vinylidene fluoride) (PVDF) membranes (Millipore). 5% BSA was used, and then the membranes were incubated with primary antibodies overnight at 4° C. The membranes were then washed by Tris-buffered saline with Tween 20 (TBST) and incubated with secondary antibodies for 1 hour at room temperature. The signal was detected using iBright FL1000 Imaging System from Thermo Fisher Scientific.
Cell culture Human keratinocyte and melanocyte were cultured from human foreskin. The keratinocyte was cultured with keratinocyte serum-free medium (SFM), or K-SFM, which is a complete serum-free medium and supplemented with human recombinant epidermal growth factor (rEGF) and bovine pituitary extract (BPE) (Gibco, 17005042) at the time of use. Melanocyte was cultured with Medium 254 containing human melanocyte growth supplement (HMGS) (Gibco, M254500). The culture was maintained at 37° C. and in 5% CO2. Keratinocyte Kit ligand secretion was detected by Human SCF ELISA Kit (Abcam, ab176109). All of the procedures followed manufacturer's instruction.
In skin, keratinocyte interacts with melanocyte through a system of paracrine growth factors and cell-cell adhesion junction for a stable skin homeostatic balance. In this embodiment, primary cultures of keratinocyte and melanocyte were prepared from human foreskin. The primary human keratinocytes were treated with indicated concentration of CKI for 3 days, and the conditional medium was collected and used to treat melanocytes for 3 days.
Additional casein kinase 1 inhibitors were used to examine their effects on KitL production with human keratinocyte cultures. […] A51 was a CKI gifted by Dr. Yinon Ben-Neriah, and […] (Sigma-Aldrich D1944) and IC261 (Sigma-Aldrich 400090) were commercially available and were dissolved in DMSO. CKI7 was another CKI commercially available (Sigma-Aldrich C0742) and was dissolved in ddH20. […] Expression of KitL was increased in CKI, CKI7, D4476 and IC261 after treatment for 72 hours, compared to DMSO or mock. Mock was a control in the experiment where the keratinocytes were neither treated with DMSO or any CKI. In FIG. 7B, it was further shown that D4476 treatment at concentrations of from 500 nM to 5,000 nM on human keratinocytes increases the expression of p53 and KitL […] in treated keratinocytes after 72 hours. […]

[2] = test system: KitL/c-Kit pathway and melanocyte-related targets; test: Western blotting of ear skin, MC1R mutant mice; format: in vivo, mouse; conditions: topical, total 0.24 mg over 2 weeks, ear skin at 3rd week
Protocol: FIGS. 2A to 2L show the effects of CK1α ablation in keratinocytes of MC1R mutant mice and the UV protection effect of topical CKI treatment on MC1R mutant mice. […] The skin samples were treated as illustrated in the scheme and harvested after 24 hours of 750 mJ/cm^2 UVB irradiation on day 21 and stained with anti-CPD antibody for examining the DNA damage.
FIGS. 5A and 5B show the effect of D4476 and IC261 treatments on MC1R mutant mice.
as §1

human foreskin explants = test: Human skin explant: colour, Fontana-Masson staining, Melan-A and Trp-1 IHC; format: cell-based; conditions: D4476, human skin explant
Protocol: (§2) The specimen was cultured in the 12-well plate (N=5). After 24 hours of explant culture, the specimen was treated with 0.01 mg CKI, and another treatment of 0.01 mg CKI was given two days thereafter, as shown in the timeline. On the 5th day, the specimens were exposed under 1 J/cm^2 UVB light. Samples were harvested 6 hours later. […] Moreover, frozen embedding in OCT was also made for IHC analysis for Melan-A and Trp-1 labelling.
(§3) FIGS. 6A to 6E show the UV protection effect of topical treatment of another CKI, D4476, on human skin explants. […] FIGS. 6C and 6D show the Western blotting analysis results and the quantitated amount, respectively, of the expression levels of proteins in the c-Kit pathway and melanogenesis-related protein.
For topical use on human skin explant, a CKI solution containing 1 mg in 6 μL DMSO was diluted with 594 μL phosphate buffered saline (PBS) for further use. The final working concentration is 0.01 mg/6 μL.
Human skin explant The human foreskins were used for in vitro explant culture experiments. […]
Primary antibody was applied in 4° C. overnight, and then incubated with secondary antibody at room temperature for 30 minutes. The signal was detected by AEC+Substrate-Chromogen (K346111, Dako) or Dako REAL EnVDetectSys Perox/DAB+, Rb/M (K500711, Dako), counterstained with hematoxylin and mounted with either aqueous- or organic-based medium. […]

[3] = test system: p53 and pigmentation-related proteins; test: Western blotting of human skin explant epidermis; format: cell-based; conditions: 0.1 mg of D4476, human skin explant, vs control
Text: (§4) The numbers of Melan-A+cells and Trip-1+cells and also the relative melanin intensity in the control or CKI treatment groups are quantified in the histograms. […] The asterisks *** indicated a significant difference with P<0.001.
In addition, the epidermis and dermis were separated by thermolysin. The total proteins of epidermis were extracted by T-PER Tissue Protein Extraction Reagent (78510, Thermo Fisher) for Western blotting analysis.
as §1

CPD = test: UVB-induced CPD in human skin explants; format: cell-based; conditions: 0.08 mg of D4476; 6 hours after 1,000 mJ/cm^2 UVB
Protocol: as §2, §4, §3
In the immunohistochemical analysis shown in FIG. 3C, both Melan-A and Trp-1, the markers for melanocyte, were found increased in the staining. […] In addition, human skin explants after topical CKI treatment were exposed to 1 J/cm^2 UVB irradiation, and collected for CPD analysis 6 hours later. […]

[4] = compared to DMSO or mock (FIG. 7A)
[5] = 500 nM to 5,000 nM, dose-independently

Row | SMILES | expression of KitL [1, 4] | expression of Kit-L [2] | expression of c-Kit [2] | expression of tyrosinase [2] | melanin intensity in epidermis (Fontana-Masson staining) (human foreskin explants) | KitL (Western blotting) [3] | c-Kit (Western blotting) [3] | p53 (Western blotting) [3] | tyrosinase (Western blotting) [3] | β-catenin (Western blotting) [3] | CPD staining (CPD) | expression of KitL [1, 5] | expression of p53 [1, 5]
1 | NCCNS(=O)(=O)c1ccc(Cl)c2ccncc12 [CKI7] | increased | – | – | – | – | – | – | – | – | – | – | – | –
2 | NC(=O)c1ccc(-c2nc(-c3ccc4c(c3)OCCO4)c(-c3ccccn3)[nH]2)cc1 [D4476] | increased | increased | increased | increased | increased | increased | increased | stabilization | increased | stabilization | reduced | increases | increases
3 | COc1cc(OC)c(C=C2C(O)=Nc3ccccc32)c(OC)c1 [IC261] | increased | increased | increased | increased | – | – | – | – | – | – | – | increases | increases
